Where two headings read alike, the source gives them in different places.
Experiments:
HCoV-HKU1 Mpro = HCoV-HKU1 Mpro (Human coronavirus HKU1, UniProt P0C6X2); assay: HCoV-HKU1 Mpro enzymatic inhibition assay (fluorescence); assay type: biochemical
Method: (§1) The hCoV Mpro are cloned, expressed in E. coli and purified by WuXi AppTec Co., Ltd. The substrate are synthesized by Genscript Biotech.
(§2) Compounds are 3 fold serially diluted for 10 doses and added to an assay plate (384w format) using ECHO, in duplicate wells. The test concentration of test compounds is defined by sponsor. […] For no inhibition control (ZPE, zero percent effect), DMSO is added.
(§3) 25 μL of Mpro proteins are added to the assay plates containing compounds, respectively, using Multidrop. The compounds and Mpro proteins are pre-incubated at room temperature for 30 min. Then 5 µL of Mpro substrates are added to the related assay plates, respectively. Each activity testing point has a relevant background control to normalize the fluorescence interference of compound.
(§4) After 60 min incubation at 30° C., the fluorescence signal (RFU) is detected using a microplate reader M2e (SpectraMax) at Ex/Em=340 nm/490 nm.
(§5) The inhibition activity is calculated using the formula below, IC50 values will be calculated using the Inhibition % data.
(§6) Inhibition %=[(CPD−BGCPD)−(ZPE−BGZPE)/(HPE−BGHPE)−(ZPE−BGZPE)]×[…] • CPD: Signal of test compounds wells, containing compound+enzyme+substrate. • ZPE: Average of signals of zero percent effective control wells, containing enzyme+substrate, no compound. • HPE: Average of signals of hundred percent effect control wells, containing GC376+enzyme+substrate. • BG: Compound background control wells, containing compound+substrate, no enzyme
(§7) IC50 values of compounds are calculated with the GraphPad Prism software using the nonlinear regression model of log(inhibitor) vs. response—Variable slope (four parameters).

MERS Mpro = MERS Mpro (Middle East respiratory syndrome-related coronavirus, UniProt K9N7C7); assay: biochemical; set-up: species or system MERS-CoV
HCoV-NL63 Mpro = HCoV-NL63 Mpro (Human coronavirus NL63, UniProt P0C6X5); assay: HCoV-NL63 Mpro enzymatic inhibition assay (fluorescence); assay type: biochemical
Method: as §1, §2, §3, §4, §5, §6, §7

HCoV-OC43 Mpro = HCoV-OC43 Mpro (Human coronavirus OC43, UniProt P0C6X6); assay: HCoV-OC43 Mpro enzymatic inhibition assay (fluorescence); assay type: biochemical
Method: as §1, §2, §3, §4, §5, §6, §7

SARS-CoV-2 Mpro = SARS-CoV-2 Mpro (Severe acute respiratory syndrome coronavirus 2, UniProt P0DTD1); assay: SARS-CoV-2 Mpro enzymatic inhibition assay (fluorescence); assay type: biochemical
How it was run: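 A fluorescence readout (340 nm excitation, 490 nm emission) was taken after the substrate reaction ran 60 min at 30° C. Before substrate addition, E. coli-expressed protease and compound (3-fold dilutions, 10 doses, duplicates) sat together 30 min at room temperature. Percent inhibition was fitted by variable-slope nonlinear regression to give IC50.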

HCoV-229E Mpro = HCoV-229E Mpro (Human coronavirus 229E, UniProt P0C6X1); assay: HCoV-229E Mpro enzymatic inhibition assay (fluorescence); assay type: biochemical
Method: as §1, §2, §3, §4, §5, §6, §7

SARS-CoV-1 Mpro = SARS-CoV-1 Mpro (Severe acute respiratory syndrome coronavirus, UniProt P0C6X7); assay: biochemical

HCoV-OC43 Mpro, sequence (P0C6X6 3247-3549 limits assumed): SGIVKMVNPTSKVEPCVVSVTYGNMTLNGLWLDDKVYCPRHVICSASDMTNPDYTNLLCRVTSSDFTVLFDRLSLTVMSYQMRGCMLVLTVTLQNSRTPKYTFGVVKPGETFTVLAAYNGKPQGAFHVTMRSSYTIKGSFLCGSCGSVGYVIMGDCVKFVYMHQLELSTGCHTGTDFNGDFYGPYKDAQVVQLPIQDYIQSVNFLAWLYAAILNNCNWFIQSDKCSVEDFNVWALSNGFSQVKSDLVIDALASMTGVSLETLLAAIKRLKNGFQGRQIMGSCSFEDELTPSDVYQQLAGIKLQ
HCoV-HKU1 Mpro, sequence (P0C6X2 3335-3637 limits assumed): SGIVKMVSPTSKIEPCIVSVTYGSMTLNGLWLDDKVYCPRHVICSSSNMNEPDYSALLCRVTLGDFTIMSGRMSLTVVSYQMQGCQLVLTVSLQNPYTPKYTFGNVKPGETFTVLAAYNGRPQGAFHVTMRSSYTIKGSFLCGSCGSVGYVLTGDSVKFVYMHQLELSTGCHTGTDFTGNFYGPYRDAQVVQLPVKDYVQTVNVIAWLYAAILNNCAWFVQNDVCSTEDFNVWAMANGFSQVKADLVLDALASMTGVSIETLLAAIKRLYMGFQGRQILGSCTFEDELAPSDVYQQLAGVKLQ
HCoV-229E Mpro, sequence (P0C6X1 2966-3267 limits assumed): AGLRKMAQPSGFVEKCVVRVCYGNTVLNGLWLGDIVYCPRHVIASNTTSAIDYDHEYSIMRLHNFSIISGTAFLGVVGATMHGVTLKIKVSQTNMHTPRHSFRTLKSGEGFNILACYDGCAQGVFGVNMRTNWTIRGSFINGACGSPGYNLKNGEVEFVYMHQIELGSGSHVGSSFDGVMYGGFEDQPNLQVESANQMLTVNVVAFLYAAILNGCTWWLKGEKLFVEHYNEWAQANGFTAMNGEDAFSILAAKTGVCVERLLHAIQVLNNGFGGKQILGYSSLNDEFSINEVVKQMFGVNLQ
MERS Mpro, sequence (K9N7C7 3248-3553 limits assumed): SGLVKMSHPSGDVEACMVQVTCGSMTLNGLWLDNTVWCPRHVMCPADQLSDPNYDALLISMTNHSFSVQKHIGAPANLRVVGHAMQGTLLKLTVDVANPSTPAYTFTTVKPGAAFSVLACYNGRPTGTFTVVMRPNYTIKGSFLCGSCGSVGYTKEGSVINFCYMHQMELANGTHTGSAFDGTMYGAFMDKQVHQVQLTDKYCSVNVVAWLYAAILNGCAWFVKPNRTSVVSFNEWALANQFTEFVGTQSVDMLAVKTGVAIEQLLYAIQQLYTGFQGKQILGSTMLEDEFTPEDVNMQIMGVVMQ
HCoV-NL63 Mpro, sequence (P0C6X5 2940-3242 limits assumed): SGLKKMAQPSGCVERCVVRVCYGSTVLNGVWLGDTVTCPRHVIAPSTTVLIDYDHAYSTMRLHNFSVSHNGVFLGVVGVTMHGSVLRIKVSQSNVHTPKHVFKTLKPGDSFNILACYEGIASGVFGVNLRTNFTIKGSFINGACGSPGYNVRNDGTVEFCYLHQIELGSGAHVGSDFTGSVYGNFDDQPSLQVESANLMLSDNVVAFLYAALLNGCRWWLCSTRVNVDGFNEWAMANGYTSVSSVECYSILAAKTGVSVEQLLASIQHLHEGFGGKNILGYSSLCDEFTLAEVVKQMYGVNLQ

## CC1(C)[C@@H]2[C@@H](C(=O)N[C@H](C=O)C[C@@H]3CCCNC3=O)N(C(=O)c3cc4cccc(Cl)c4[nH]3)C[C@@H]21 [Compound 25, (1R,2S,5S)-3-(7-chloro-1H-indole-2-carbonyl)-6,6-dimethyl-N—((S)-1-oxo-3-((S)-2-oxopiperidin-3-yl)propan-2-yl)-3-azabicyclo[3.1.0]hexane-2-carboxamide]
HCoV-HKU1 Mpro
  IC50: 30.2 nM
MERS Mpro
  IC50: 140 nM
HCoV-NL63 Mpro
  IC50: 53.8 nM
HCoV-OC43 Mpro
  IC50: 43 nM
SARS-CoV-2 Mpro
  IC50: 16.7 nM
HCoV-229E Mpro
  IC50: 33.8 nM
SARS-CoV-1 Mpro
  IC50: 24 nM

## O=C[C@H](C[C@@H]1CCNC1=O)NC(=O)[C@@H]1[C@H]2CCC[C@H]2CN1C(=O)c1cc2ccccc2[nH]1 [Compound 26, (1S,3aR,6aS)-2-(1H-indole-2-carbonyl)-N—((S)-1-oxo-3-((S)-2-oxopyrrolidin-3-yl)propan-2-yl)octahydrocyclopenta[c]pyrrole-1-carboxamide]
HCoV-HKU1 Mpro
  IC50: 20.7 nM
MERS Mpro
  IC50: 173 nM
HCoV-NL63 Mpro
  IC50: 37.8 nM
HCoV-OC43 Mpro
  IC50: 28.6 nM
SARS-CoV-2 Mpro
  IC50: 16.8 nM
HCoV-229E Mpro
  IC50: 42.7 nM
SARS-CoV-1 Mpro
  IC50: 93.7 nM

## CC1(C)[C@@H]2[C@@H](C(=O)N[C@H](C=O)C[C@@H]3CCNC3=O)N(C(=O)c3cc4cc5c(cc4[nH]3)OCO5)C[C@@H]21 [Compound 27, (1R,2S,5S)-3-(5H-[1,3]dioxolo[4,5-f]indole-6-carbonyl)-6,6-dimethyl-N—((S)-1-oxo-3-((S)-2-oxopyrrolidin-3-yl)propan-2-yl)-3-azabicyclo[3.1.0]hexane-2-carboxamide]
HCoV-HKU1 Mpro
  IC50: 49 nM
MERS Mpro
  IC50: 466 nM
HCoV-NL63 Mpro
  IC50: 82.8 nM
HCoV-OC43 Mpro
  IC50: 89.2 nM
SARS-CoV-2 Mpro
  IC50: 17.2 nM
HCoV-229E Mpro
  IC50: 54.7 nM
SARS-CoV-1 Mpro
  IC50: 52.8 nM

## COc1ccc(Cl)c2[nH]c(C(=O)N3C[C@H]4[C@@H]([C@H]3C(=O)N[C@H](C=O)C[C@@H]3CCNC3=O)C4(C)C)cc12 [Compound 28, (1R,2S,5S)-3-(7-chloro-4-methoxy-1H-indole-2-carbonyl)-6,6-dimethyl-N—((S)-1-oxo-3-((S)-2-oxopyrrolidin-3-yl)propan-2-yl)-3-azabicyclo[3.1.0]hexane-2-carboxamide]
HCoV-HKU1 Mpro
  IC50: 19.9 nM
MERS Mpro
  IC50: 224 nM
HCoV-NL63 Mpro
  IC50: 50.9 nM
HCoV-OC43 Mpro
  IC50: 43.2 nM
SARS-CoV-2 Mpro
  IC50: 18 nM
HCoV-229E Mpro
  IC50: 35.6 nM
SARS-CoV-1 Mpro
  IC50: 26.9 nM

## CC1(C)[C@@H]2[C@@H](C(=O)N[C@H](C=O)C[C@@H]3CCNC3=O)N(C(=O)c3cc4cccc(C(F)(F)F)c4[nH]3)C[C@@H]21 [Compound 29, (1R,2S,5S)-6,6-dimethyl-N—((S)-1-oxo-3-((S)-2-oxopyrrolidin-3-yl)propan-2-yl)-3-(7-(trifluoromethyl)-1H-indole-2-carbonyl)-3-azabicyclo[3.1.0]hexane-2-carboxamide]
HCoV-HKU1 Mpro
  IC50: 53.5 nM
MERS Mpro
  IC50: 296 nM
HCoV-NL63 Mpro
  IC50: 93.9 nM
HCoV-OC43 Mpro
  IC50: 87 nM
SARS-CoV-2 Mpro
  IC50: 18.3 nM
HCoV-229E Mpro
  IC50: 47.4 nM
SARS-CoV-1 Mpro
  IC50: 35.2 nM

## CC1(C)[C@@H]2[C@@H](C(=O)N[C@H](C=O)C[C@@H]3CCNC3=O)N(C(=O)c3cc4sccc4[nH]3)C[C@@H]21 [Compound 30, (1R,2S,5S)-6,6-dimethyl-N—((S)-1-oxo-3-((S)-2-oxopyrrolidin-3-yl)propan-2-yl)-3-(4H-thieno[3,2-b]pyrrole-5-carbonyl)-3-azabicyclo[3.1.0]hexane-2-carboxamide]
HCoV-HKU1 Mpro
  IC50: 26 nM
MERS Mpro
  IC50: 239 nM
HCoV-NL63 Mpro
  IC50: 49.7 nM
HCoV-OC43 Mpro
  IC50: 43.8 nM
SARS-CoV-2 Mpro
  IC50: 18.6 nM
HCoV-229E Mpro
  IC50: 24.5 nM
SARS-CoV-1 Mpro
  IC50: 51.1 nM

## COc1cccc2[nH]c(C(=O)N3CC4(CC4)C[C@H]3C(=O)N[C@H](C=O)C[C@@H]3CCNC3=O)cc12 [Compound 31, (S)-5-(4-Methoxy-1H-indole-2-carbonyl)-N—((S)-1-oxo-3-((S)-2-oxopyrrolidin-3-yl)propan-2-yl)-5-azaspiro[2.4]heptane-6-carboxamide]
HCoV-HKU1 Mpro
  IC50: 14.2 nM
MERS Mpro
  IC50: 188 nM
HCoV-NL63 Mpro
  IC50: 49.3 nM
HCoV-OC43 Mpro
  IC50: 22.2 nM
SARS-CoV-2 Mpro
  IC50: 18.9 nM
HCoV-229E Mpro
  IC50: 31.7 nM
SARS-CoV-1 Mpro
  IC50: 34 nM

## CC1(C)[C@@H]2[C@@H](C(=O)N[C@H](C=O)C[C@@H]3CCNC3=O)N(C(=O)c3cc4cccc(C#N)c4[nH]3)C[C@@H]21 [Compound 32, (1R,2S,5S)-3-(7-cyano-1H-indole-2-carbonyl)-6,6-dimethyl-N—((S)-1-oxo-3-((S)-2-oxopyrrolidin-3-yl)propan-2-yl)-3-azabicyclo[3.1.0]hexane-2-carboxamide]
HCoV-HKU1 Mpro
  IC50: 21.8 nM
MERS Mpro
  IC50: 177 nM
HCoV-NL63 Mpro
  IC50: 59.6 nM
HCoV-OC43 Mpro
  IC50: 52.4 nM
SARS-CoV-2 Mpro
  IC50: 19.7 nM
HCoV-229E Mpro
  IC50: 35.4 nM
SARS-CoV-1 Mpro
  IC50: 36.3 nM

## Cc1cccc2cc(C(=O)N3C[C@H]4[C@@H]([C@H]3C(=O)N[C@H](C=O)C[C@@H]3CCNC3=O)C4(C)C)[nH]c12 [Compound 33, (1R,2S,5S)-6,6-Dimethyl-3-(7-methyl-1H-indole-2-carbonyl)-N—((S)-1-oxo-3-((S)-2-oxopyrrolidin-3-yl)propan-2-yl)-3-azabicyclo[3.1.0]hexane-2-carboxamide]
HCoV-HKU1 Mpro
  IC50: 37.9 nM
MERS Mpro
  IC50: 227 nM
HCoV-NL63 Mpro
  IC50: 78 nM
HCoV-OC43 Mpro
  IC50: 83.2 nM
SARS-CoV-2 Mpro
  IC50: 19.7 nM
HCoV-229E Mpro
  IC50: 43.5 nM
SARS-CoV-1 Mpro
  IC50: 34 nM

## CC(C)c1cccc2[nH]c(C(=O)N3C[C@H]4[C@@H]([C@H]3C(=O)N[C@H](C=O)C[C@@H]3CCNC3=O)C4(C)C)cc12 [Compound 34, (1R,2S,5S)-3-(4-isopropyl-1H-indole-2-carbonyl)-6,6-dimethyl-N—((S)-1-oxo-3-((S)-2-oxopyrrolidin-3-yl)propan-2-yl)-3-azabicyclo[3.1.0]hexane-2-carboxamide]
HCoV-HKU1 Mpro
  IC50: 20.8 nM
MERS Mpro
  IC50: 278 nM
HCoV-NL63 Mpro
  IC50: 65.3 nM
HCoV-OC43 Mpro
  IC50: 57.9 nM
SARS-CoV-2 Mpro; mean, 25 nM protein, 25 μM substrate, 30 min pre-incubation, 60 min at 30° C., read-out: Mpro_SARS-CoV-2 mean IC50
  IC50: 19.8 nM
HCoV-229E Mpro
  IC50: 37.7 nM
SARS-CoV-1 Mpro
  IC50: 35.3 nM

## NC(=O)C(=O)[C@H](C[C@@H]1CCNC1=O)NC(=O)[C@@H]1CC2(CC2)CN1C(=O)c1cc2ccccc2[nH]1 [Compound 35, (S)—N—((S)-4-Amino-3,4-dioxo-1-((S)-2-oxopyrrolidin-3-yl)butan-2-yl)-5-(1H-indole-2-carbonyl)-5-azaspiro[2.4]heptane-6-carboxamide]
HCoV-HKU1 Mpro
  IC50: 11.4 nM
MERS Mpro
  IC50: 179 nM
HCoV-NL63 Mpro
  IC50: 48.5 nM
HCoV-OC43 Mpro
  IC50: 64.4 nM
SARS-CoV-2 Mpro
  IC50: 20.3 nM
HCoV-229E Mpro
  IC50: 37.4 nM
SARS-CoV-1 Mpro
  IC50: 65.8 nM

## COc1ccc(F)c2[nH]c(C(=O)N3C[C@H]4[C@@H]([C@H]3C(=O)N[C@H](C=O)C[C@@H]3CCNC3=O)C4(C)C)cc12 [Compound 36, (1R,2S,5S)-3-(7-Fluoro-4-methoxy-1H-indole-2-carbonyl)-6,6-dimethyl-N—((S)-1-oxo-3-((S)-2-oxopyrrolidin-3-yl)propan-2-yl)-3-azabicyclo[3.1.0]hexane-2-carboxamide]
HCoV-HKU1 Mpro
  IC50: 35.7 nM
MERS Mpro
  IC50: 245 nM
HCoV-NL63 Mpro
  IC50: 51.7 nM
HCoV-OC43 Mpro
  IC50: 42.7 nM
SARS-CoV-2 Mpro
  IC50: 20.6 nM
HCoV-229E Mpro
  IC50: 33.2 nM
SARS-CoV-1 Mpro
  IC50: 31.7 nM

## C[C@@H](C(=O)N1C[C@H]2[C@@H]([C@H]1C(=O)N[C@H](C=O)C[C@@H]1CCNC1=O)C2(C)C)c1ccccc1 [Compound 37, (1R,2S,5S)-6,6-dimethyl-N—((S)-1-oxo-3-((S)-2-oxopyrrolidin-3-yl)propan-2-yl)-3-((R)-2-phenylpropanoyl)-3-azabicyclo[3.1.0]hexane-2-carboxamide]
HCoV-HKU1 Mpro
  IC50: 36.4 nM
MERS Mpro
  IC50: 242 nM
HCoV-NL63 Mpro
  IC50: 188 nM
HCoV-OC43 Mpro
  IC50: 36.7 nM
SARS-CoV-2 Mpro
  IC50: 20.6 nM
HCoV-229E Mpro
  IC50: 45.6 nM
SARS-CoV-1 Mpro
  IC50: 40.4 nM

## O=C[C@H](C[C@@H]1CCNC1=O)NC(=O)[C@@H]1C[C@@H](C2CCCCC2)CN1C(=O)c1cc2c(F)cccc2[nH]1 [Compound 38, (2S,4S)-4-Cyclohexyl-1-(4-fluoro-1H-indole-2-carbonyl)-N—((S)-1-oxo-3-((S)-2-oxopyrrolidin-3-yl)propan-2-yl)pyrrolidine-2-carboxamide]
HCoV-HKU1 Mpro
  IC50: 16 nM
MERS Mpro
  IC50: 516 nM
HCoV-NL63 Mpro
  IC50: 100 nM
HCoV-OC43 Mpro
  IC50: 46 nM
SARS-CoV-2 Mpro
  IC50: 21 nM
HCoV-229E Mpro
  IC50: 41.6 nM
SARS-CoV-1 Mpro
  IC50: 97 nM

From patent US20260355212A1 (priority 2022, published 2026)
